Test results: patent US7070813B2, “Preventative and treatment effects of morinda citrifolia as a colon cancer cell growth inhibitor” (priority 2001, dated 2006)

Tested on: human colon tumor cell line DLD-1
Test: cells
Format: cell-based
Conditions: for Percent Growth (Mean ± SEM, n = 2): 72 h exposure
Procedure: A colon tumor assay was used to detect changes in cell proliferation based on the ability of viable cells to cause alamarBlue to change from its oxidized state (non-fluorescent, blue) to a reduced (fluorescent, red) form. With the results obtained from the alamarBlue reaction, cell proliferation can be quantified and metabolic activity of viable cells can be examined. MDA-1 (a processed Morinda citrifolia product) was tested for its effect upon the proliferation of human colon tumor cell line (or DLD-1), and at five final assay concentrations from 10% to […] through 2-fold serial dilutions.
The MDA-1 test compound, or Morinda citrifolia fruit juice, was used for in vitro anti-tumor studies. The test compound was in liquid form and diluted with phosphate-buffered saline to obtain initial working solutions. […]
The human colon tumor cell line of DLD-1 was obtained from American Type Culture Collection (ATCC CCL-221). The culture was used with RPMI 1640, 90%; Fetal Bovine Serum, 10% and supplemented with 1% Antibiotic-Antimycotic and the cells were incubated in an atmosphere containing 5% CO2 at 37 degrees Celsius.
In the evaluation of anti-proliferation for test substances, […].
Mean Ftime0=The average of two measured fluorescent intensities of reduced alamarBlue at the time just before exposure of cells to the test substance.
Mean Ftest=The average of two measured fluorescent intensities of alamarBlue after seventy-two hour exposure of cells to the test substance.
Mean Fctrl=The average of two measured fluorescent intensities of alamarBlue after seventy-two hour incubation without the test substance.
Mean Fblank=The average of two measured fluorescent intensities of alamarBlue in medium without cells after seventy-two hour incubation.
A decrease of fifty percent or more (≧50%) in fluorescent intensity relative to vehicle-treated control indicated significant cell growth inhibition, cytostatic or cytotoxic activity, and a semi-quantitative IC50, TGI and LC50 were then determined by nonlinear regression using GraphPad Prism (GraphPad Software, USA).
TGI (Total Growth Inhibition): Test compound concentration where the number or mass of treated cells at the end of experiment was equal to that at time0.
A semi-quantitative determination of IC50, TGI and LC50 was carried out by nonlinear regression analysis using GraphPad Prism (GraphPad Software, USA).

CO[C@@]12[C@H](COC(N)=O)C3=C(C(=O)C(C)=C(N)C3=O)N1C[C@@H]1N[C@@H]12 [Mitomycin]
activity of standard reference agent (growth inhibition) (DLD-1, at <10 μM): Significant activity | Percent Growth (Mean ± SEM, n = 2) (DLD-1, concentration 0.001 μM): 95 ± 5 | Percent Growth (Mean ± SEM, n = 2) (DLD-1, concentration 0.01 μM): 103 ± 6 | Percent Growth (Mean ± SEM, n = 2) (DLD-1, concentration 0.1 μM): 60 ± 7 | Percent Growth (Mean ± SEM, n = 2) (DLD-1, concentration 1 μM): 35 ± 4 | Percent Growth (Mean ± SEM, n = 2) (DLD-1, concentration 10 μM): −50 ± 8 | Estimated TGI (Total Growth Inhibition) (DLD-1, semi-quantitative, nonlinear regression): 2200 nM | IC50 (Homo sapiens, DLD-1, semi-quantitative, nonlinear regression, read-out: Estimated IC50 (50% Inhibition Concentration)): 380 nM
